Assay: Color retention after shampoo treatment, peptide as sealant with HC Blue 26 dye
Design: species or system human
Details: 0.50 wt % HC Blue 26, peptide 0.25 wt %, 90 min contact, after 6 shampoo treatments; dye alone 25.75
Description: The peptides used in this Example were prepared as described in Examples 1 and 2. The color retention was quantified using a spectrophotometric measurement technique. A peptide given as SEQ ID NO:41 or SEQ ID NO:42 (38 mg), produced via fermentation as described in Examples 1 and 2, was added to 15 g of an aqueous 0.50 wt % solution of HC Blue 26 (Aldrich) and the solution was allowed to stir for 1 h. A natural white hair tress (1 cm wide, potted, International Hair Importers & Products Inc., Bellerose, N.Y.) was inserted into a 15 mm×125 mm test tube and 13 mL of the peptide/dye mixture was injected into the test tube. The hair tress was immersed in contact with the colorant solution for 90 min and the colorant solution was agitated using a magnetic stirrer. The tress was removed, allowed to drip dry, and then air dried for 30 min. The hair tress was then subjected to a water rinse using copious amounts of deionized water, followed by a shampoo treatment with embrocation for 30 seconds. The shampoo treatment involved the application of Pantene Pro-V Sheer Volume shampoo (Proctor & Gamble, Cincinnati, Ohio) to the hair as follows. […] The color intensity after the shampoo was measured as described in Examples 4-7.

Substance | Delta E
P-EQISGSLVAAPW-KRKRK-D (PEQISGSLVAAPWKRKRKD; Peptide having affinity for hair) [HC 74] | 30.36
P-TPPELLHGAPRS-KRKRK-D (PTPPELLHGAPRSKRKRKD; Peptide having affinity for hair) [HC 71] | 27.83
